Entries after “also recorded” stand apart in the source; their conditions may differ.
Key:
[1] = Solubility of LA1 in oral vehicle formulations and simulated biological fluids (LC-MS); assay type: physicochemical
Description: Pilot oral vehicle evaluation. […] Subsequently, re-dispersability of LA1 was tested using two simulated biological fluids—simulated gastric fluid (SGF) and Fasted State Simulated […] Fluid (FaSSIF).

CD11b/CD18 = CD11b/CD18 (Homo sapiens, UniProt P11215); test: Immunofluorescence microscopy of CD11b/CD18 clustering on K562 WT cells; assay type: cell-based; parameters: K562 cells stably transfected with plasmid encoding wild-type integrin CD11b/CD18; expressed in transfected cells
Description: To visualize changes upon ligand binding, fibrinogen (50 μg/mL) was also added to the cell suspension media in a second set of incubations. The cells were fixed in suspension and incubated with mAb 184, which is specific for CD11b/CD18, followed by Alexa Fluor 488-conjugated goat antibody against mouse Ig (Sigma). Fluorescence images were recorded with a Leica DMI16000 deconvolution microscope using an HCX APO 40×/0.75 DRY objective with a DCF360FX camera and with Leica LAS-AF software. A 3-dimensional representation of CD11b/CD18 fluorescence intensity and the analysis of the number of CD11b/CD18 clusters per cell was performed using ImageJ software as described. Clustering determination was carried out by counting individual fluorescent peaks that were projected from the basal to the apical side of the cell and were at least 50% above the base line levels. The images presented are representative of at least 20 cells analyzed for each condition from at least three independent experiments.
Therefore, to investigate, a combination of confocal microscopy (to study clustering) and western blotting assays (to study intracellular signaling) using K562 WT cells were used. First, CD11b/CD18 cell-surface distribution and macro clustering was studied under various conditions using confocal microscopy. K562 WT cells in suspension were incubated with various agonists, fixed with paraformaldehyde and the surface expressed CD11b/CD18 was fluorescently stained with anti-CD11b/CD18 mAb 1B4. […] The fluorescence images shown are representative of three independent experiments. […] Also shown below each image is a 3D representation of CD11b fluorescence intensity for selected cells, analyzed in ImageJ In FIG. 5B, data shown are mean±SEM from >40 cells per condition and from >3 independent experiments for each condition. ***p<0.0001, ns=not significant.

C57BL/6J mice = test: Survival after sublethal total body irradiation; assay type: in vivo; conditions: 20 μg/animal for seven days
Description: Control groups (16 mice per group) of 6-8 weeks old C57BL/6J mice received a single sublethal dose (6 Gy) of total body radiation (TBI) and were monitored for survival with radiation alone. The experimental groups (16 mice per group) of 6-8 weeks old C57BL/6J received a single sublethal dose (6 Gy) of total body radiation (TBI) and were administered leukadherin LA1 (20 μg/animal) for seven consecutive days. Additionally, two additional control groups of animals were monitored—animals with no treatment at all or animals that were administered LA1 for seven consecutive days in the absence of any irradiation.

[2] = tested on: CD11b+ macrophages in injured arteries; test: Flow cytometric quantitation of arterial macrophages in injured arteries; assay type: in vivo, rat; conditions: 7 days after balloon injury; LA1 1 mg/kg/d; ED7 1 and 3.3 mg/kg/d
Description: Agonist treated and control balloon-injured Fisher 344 rats were sacrificed 7 days post surgery at the onset of inflammation. The injured and non-injured iliac arteries were microdissected and digested with Collagenase/Elastase mix (Worthington Biochemical, NY) in DMEM containing 2% FBS for 2 hours at 37° C. The resulting single cell suspension was washed with cold PBS containing 2% FBS and filtered through […] sieve. Cells were re-suspended cold PBS containing 2% FBS at a concentration of 10^6 cells per 100 μl and stained with biotinylated anti-rat CD11b antibody (clone WT.5, BD Biosciences) for 1 hour at 4° C. […] Cells were washed twice with the assay buffer and analyzed using FACS II Canto cytometer and the data were analyzed using FlowJo (Tree Star Inc.) software. […]
Next, to determine whether either type of agonist (chemical LA1 and biologic activating antibody) has a therapeutic advantage over the other, a head-to-head comparison was performed using this in vivo model. […] Next, the arteries were analyzed to quantify the number of infiltrated macrophages in the presence of agonists LA1 or ED7 and compared it to vehicle treated animals. The arteries were harvested from animals 7 days after balloon injury and single cell suspensions were analyzed by flow cytometry (using anti-rat CD11b antibody WT.5) to quantitate CD11b+ macrophages in each sample. […]

Syk = test: Western blot analysis of Syk phosphorylation in leukocytes; assay type: cell-based; conditions: leukocytes incubated 0-60 minutes
From the text: TLR4-mediated signaling requires participation of the adaptor protein MyD88 (43) and MyD88−/− mice are protected from kidney damage following IRI. TLR4 activation leads to the binding and stabilization of adaptor protein MyD88, which recruits downstream kinases to initiate Nf-kB-mediated pro-inflammatory signaling. Subsequently, TLR4 signaling induces a negative feedback loop by endogenous activation of CD11b/CD18, which activates Syk to phosphorylate MyD88, tagging it for ubiquitin-mediated destruction. […] A pilot experiment was carried out to validate this hypothesis by determining the levels of MyD88 in human monocytic THP-1 cells. […] This supports the statements that leukadherins mediated priming of integrins for activation negatively regulates intracellular signaling, including the inflammatory NF-kB signaling.

O=C(O)c1ccc(-c2ccc(/C=C3\SC(=S)N(Cc4ccccc4)C3=O)o2)cc1 [LA1]
solubility in vehicle formulation ([1]; 10% Tween80, 20% ETPGS and 30% Captisol, 10 mg/mL slurry, Mg-salt): 3000 to 4000 µg/mL | solubility on re-dispersion in simulated biological fluids ([1]; SGF and FaSSIF, 10% Tween80 formulation): ~0.15 mg/mL | CD11b/CD18 macro clustering on cell surface (CD11b/CD18; absence of ligand fibrinogen, 45 minutes at 37° C.): did not induce any significant CD11b/CD18 macro clustering | CD11b/CD18 macro clustering on cell surface (CD11b/CD18; presence of fibrinogen 50 μg/mL): did so in the presence of fibrinogen | animal mortality (C57BL/6J mice; with or without 6 Gy TBI): did not result in any increase in animal mortality | effect on survival after sublethal TBI (C57BL/6J mice; 6 Gy TBI): protective effect | CD11b+ macrophages in injured arteries vs vehicle [2]: significantly less CD11b/CD18 macrophages | Syk phosphorylation (pSyk) (Syk): induction of Syk phosphorylation; also recorded: induces Syk phosphorylation
